What was measured:
Bacillus Cereus = test: agar plate disc-diffusion, antibacterial inhibition zone; format: cell-based
Method: (§1) The agar plate disc-diffusion method was applied. […] The discs were then placed onto the surface of agar plates (nutrient agar for bacteria and Sabouraud's dextrose agar for fungi) seeded with the test organism. Each plate contained 15 mL of the agar medium, previously seeded with 0.2 mL of the broth culture of each organism pregrown for 18 hours. The plates were incubated at 37° C. for 48 h, and 72 h for fungi. The inhibition zones were measured in mm. Discs impregnated with DMSO were used as a control, and its inhibition zone was subtracted from the tested compound actual inhibition zone.

Escherichia coli = test: as above; format: cell-based
Method: as §1

Pseudomonas aeruginosa = test: as above; format: cell-based
Method: as §1

Staphylococcus aureus = test: as above; format: cell-based
Method: as §1

Aspergillus flavus = test: agar plate disc-diffusion, antifungal inhibition zone; format: cell-based
Method: as §1

[1] = tested on: Chrysosporium keratinophilum; test: as above; format: cell-based
Method: as §1

[2] = tested on: human osteosarcoma cells (MG-63); test: cytotoxicity by SRB assay; format: cell-based; conditions: MG-63 cells, 0.01 μM to 100 μM for 72 h
From the text: (§2) The anticancer activity of the described synthesized compounds against highly aggressive androgen-independent metastatic human prostate cancer cells (PC3) and osteosarcoma (MG-63) cells. The human prostate cancer cells (PC3) and human osteosarcoma cells (MG-63) were obtained from Nawah Scientific Inc. (Mokatam, Cairo, Egypt) and cultured in DMEM (Dulbecco's modified eagle's medium), Gibco, USA, supplemented with fetal bovine serum (FBS) at a concentration of 10% and 100 U/mL of penicillin and streptomycin (PS). The Cells were incubated at 37° C. in a humidified environment that contained 5% CO2.
(§3) Cells were seeded in 96-well plates as aliquots of 100 μL cell suspension and incubated in a complete media for 24 h. afterward, cells were treated with 5-((2-isopropyl-5-methylphenoxy)methyl)-3-(naphthalen-2-yl)-1,2,4-oxadiazole at diverse concentrations ranging from 0.01 μM to 100 μM for 72 h. Then, cells were fixed at 4° C. for one hour with 150 μL of 10% trichloroacetic acid (TCA). […] Then, 150 μL of Tris pH 10.5 (10 mM) was added, and the absorbance was measured at 540 nm using a BMG LABTECH®-FLUOstar Omega microplate reader (Ortenberg, Germany). Half maximal inhibitory concentrations (IC50) values were calculated for each experiment using GraphPad Prism 6 software. […]
(§4) The inhibition was calculated using the following equation: Inhibition %=100−Average Viability

[3] = tested on: human prostate cancer cells (PC3); test: cytotoxicity by SRB assay; format: cell-based; conditions: 0.01 μM to 100 μM for 72 h
From the text: as §2, §3, §4

different microbes = test: agar plate disc-diffusion, overall antimicrobial activity; format: cell-based; conditions: against different microbes (bacteria and fungi)
Method: The agar plate disc-diffusion method was applied. Sterilized filter papers (6 mm in diameter) were wetted with 10 μL of a solution of 5-((2-isopropyl-5-methylphenoxy)methyl)-3-(naphthalen-2-yl)-1,2,4-oxadiazole (3) to be tested, containing 10 mg/mL in DMSO, and the discs were allowed to air dry. The discs were then placed onto the surface of agar plates (nutrient agar for bacteria and Sabouraud's dextrose agar for fungi) seeded with the test organism. Each plate contained 15 mL of the agar medium, previously seeded with 0.2 mL of the broth culture of each organism pregrown for 18 hours. The plates were incubated at 37° C. for 48 h, and 72 h for fungi. The inhibition zones were measured in mm. Discs impregnated with DMSO were used as a control, and its inhibition zone was subtracted from the tested compound actual inhibition zone.

[4] = A = concentration of comp. = 10,000 μL
[5] = B = concentration of comp. = 30,000 μL
[6] = C = concentration of comp. = 50,000 μL

Row | Compound | inhibition zone (Bacillus Cereus; [4]) | inhibition zone (Bacillus Cereus; [5]) | inhibition zone (Bacillus Cereus; [6]) | inhibition zone (Escherichia coli; [4]) | inhibition zone (Escherichia coli; [5]) | inhibition zone (Escherichia coli; [6]) | inhibition zone (Pseudomonas aeruginosa; [4]) | inhibition zone (Pseudomonas aeruginosa; [5]) | inhibition zone (Pseudomonas aeruginosa; [6]) | inhibition zone (Staphylococcus aureus; [4]) | inhibition zone (Staphylococcus aureus; [5]) | inhibition zone (Staphylococcus aureus; [6]) | inhibition zone (Aspergillus flavus; [4]) | inhibition zone (Aspergillus flavus; [5]) | inhibition zone (Aspergillus flavus; [6]) | inhibition zone [1, 4] | inhibition zone [1, 5] | inhibition zone [1, 6] | also measured
1 | O=C(O)c1cn(C2CC2)c2cc(N3CCNCC3)c(F)cc2c1=O [Cip., ciprofloxacin, reference compound] | 29 mm | 30 mm | 42 mm | 30 mm | 39 mm | 60 mm | 29 mm | 30 mm | 53 mm | 43 mm | 44 mm | 53 mm | 29 mm | 30 mm | 42 mm | 29 mm | 30 mm | 53 mm | –
2 | Cc1ccc(C(C)C)c(OCc2nc(-c3ccc4ccccc4c3)no2)c1 [compound 3, 5-((2-isopropyl-5-methylphenoxy)methyl)-3-(naphthalen-2-yl)-1,2,4-oxadiazole] | 24 mm | 27 mm | 38 mm | 28 mm | 34 mm | 49 mm | 25 mm | 29 mm | 40 mm | 17 mm | 24 mm | 32 mm | 20 mm | 25 mm | 33 mm | 26 mm | 29 mm | 45 mm | antiproliferative activity [2]: excellent antiproliferative activities; antiproliferative activity [3]: excellent antiproliferative activities; antimicrobial activity (different microbes): excellent antimicrobial activities; melting point: 187 to 188 °C

Reference: US11952354B1, “5-((2-isopropyl-5-methylphenoxy)methyl)-3-(naphthalen-2-yl)-1,2,4-oxadiazole as an anti-cancer and antimicrobial compound” (KING FAISAL UNIVERSITY, priority 2023, dated 2024)
